Results on four compounds are retold here after patent US8710073B2, “Anti-infective derivatives, method for the production thereof, pharmaceutical compositions containing same and uses of said derivatives in treatment” (Centre National de la Recherche Scientifique (C.N.R.S.), priority 2008, dated 2014).

pIC50: −log10 of the molar value.

For one experiment, the target named is InhA enoylreductase (Mycobacterium tuberculosis, UniProt P9WGR1). Description: InhA enoylreductase activity inhibition test (NADH disappearance at 340 nm). The format is biochemical. Particulars: read-out: InhA inhibition percentage; for inhibition at 10 µM: inhibitor concentration 10 μM, preincubation time 5 min. The method, then:
The InhA protein was expressed in E. coli after cloning the inhA gene in a plasmidic vector of the pET type. Growing the resulting strain and inducing expression of the inhA gene with 1 mM IPTG (isopropyl β-D-thiogalactoside) leads to the production of water-soluble InhA protein at approximately 28.5 KDa (28,368 Da) (monomeric) which is purified by standard protein purification techniques. The enzyme is present in the form of a tetramer in solution and is kept in 50 mM Hepes buffer, 50% glycerol at −20° C.
The InhA enoylreductase activity is monitored by UV spectrometry, by monitoring the disappearance of the signal of the reduced cofactor NADH at 340 nm as a function of time. The percentage inhibition is calculated by subtracting from 100 the ratio of the initial speeds (V) measured during kinetics with and without inhibitor, multiplied by 100:% inhibition=100−(Vinhib/Vblank*100). The initial speed is measured by drawing the tangent to the curve DO=f(time) at time zero.
The enzymatic reaction is carried out in a final volume of 100 μl (in a quartz vessel, optical path 1 cm). The absorption of each reaction mixture is determined with a UVIKON 293 spectrophotometer (Bio-Tek Kontron Instruments) connected to a thermostatically controlled bath which makes it possible to maintain the temperature of the vessel at 25° C. A baseline is produced during preincubation immediately before measurements begin. The measurements are carried out over 3 min after a preincubation of 5 min or 2 h.
The preincubation is carried out in 90 μl (total volume) of a solution of PIPES buffer 30 mM, NaCl 150 mM, pH=6.8 at 25° C. containing 100 nM of InhA, 100 μM, 20 μM or 10 μM of the compound to be tested (or 500 nM of the pool of INH-NAD adducts constituting the control inhibitors) and 200 μM of NADH. After 5 min or 2 h of preincubation, the addition of 35 μM of the substrate 2-trans-decenoyl-CoA initiates the reaction. […]

Experiment [1] concerns Corynebacterium glutamicum. Briefly: Growth inhibition of Corynebacterium glutamicum, MTT test. Background: Formazan colour is commonly taken as a measure of viable cells.
Method: The Corynebacterium glutamicum strain is cultivated in a BHI (Brain-Heart Infusion) medium at 30° C. with stirring at 200 rpm. The DO of the culture is measured directly and set to a value of 0.002-0.003 by dilution in the LB culture medium. C. glutamicum also grows in the LB medium, and this is used instead of BHI, which is strongly coloured and interferes with the DO reading at 570 nm.
The stock solutions are prepared in DMSO at a concentration 100 times greater than the highest concentration to be tested.
The test is carried out in the same way as the test on M. smegmatis.
The tests are carried out on 96-well NUNC microplates (Merck-eurolab). All the concentrations were tested at least twice.
Each well contains 100 μl of compound in solution in the culture medium (LB with 1% final DMSO). Subsequently, 100 μl of bacterial suspension having DO 0.002 at 650 nm are added.
The plate is sealed using parafilm and incubated at 30° C. for C. glutamicum. After two hours of incubation, 50 μl of a 1 mg/ml solution of tetrazolium salt (MTT) are added to each well. After one hour of incubation at 30° C. for C. glutamicum, 100 μl of lysis buffer are added to each well and the plate is left with stirring at ambient temperature until the solution is fully homogeneous.
The optical density is measured at 570 nm with a μQuant 96-well microplate spectrophotometer, Bio-tek Instruments, Inc.

Chain of InhA enoylreductase (P9WGR1 whole entry, looked up): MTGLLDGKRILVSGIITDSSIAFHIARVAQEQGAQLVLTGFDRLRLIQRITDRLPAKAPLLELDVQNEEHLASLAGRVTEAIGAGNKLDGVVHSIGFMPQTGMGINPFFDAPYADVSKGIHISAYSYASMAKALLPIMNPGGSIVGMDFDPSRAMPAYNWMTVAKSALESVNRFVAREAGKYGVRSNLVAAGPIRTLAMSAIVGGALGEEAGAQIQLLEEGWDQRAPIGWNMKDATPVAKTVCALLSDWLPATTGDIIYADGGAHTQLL

For orientation: inhibition means the change of the read-out against control, counted positive when it falls. Regarding `CCCCCCCCCCCCOc1cccc(C2(O)NC(=O)c3cnccc32)c1` (centres unmarked) [Example 2, 1-(3-dodecyloxyphenyl)-1-hydroxy-1,2-dihydropyrrolo[3,4-c]pyridin-3-one], the inhibition at 100 µM at InhA enoylreductase (inhibitor concentration 100 μM, preincubation time 2 h (*)) was determined as 80%. Consider `CCCCCCCCCCCCc1cccc(C2(O)NC(=O)c3c[n+](CC(=O)OCC)ccc32)c1` (centres unmarked) [Example 3, 1-(3-dodecylphenyl)-5-[2-(ethyloxy)-2-oxoethyl]-1-hydroxy-3-oxo-1,2-dihydropyrrolo[3,4-c]pyridinium bromide], for which the inhibition at 10 µM on InhA enoylreductase was 19%.

As to `CCCCCCCCCCCCc1cccc(C(=O)C2C=CN(CC(=O)OCC)C=C2C(N)=O)c1` (centres unmarked) [Example 4, ethy 3-aminocarbonyl-[4-(3-dodecylbenzoyl)-1,4-dihydro-pyridin-1-yl]acetate], on InhA enoylreductase, the inhibition at 10 µM came out at 25%. Take `NNC(=O)c1ccncc1` [Isoniazide]: the pIC50 in experiment [1] (Corynebacterium glutamicum, read-out: CI50 (concentration corresponding to 50% inhibition) on the bacterial strain C. glutamicum) was less than 2.30. Also, the “activity on C. glutamicum” value in experiment [1] (at 5 mM) was “does not exhibit any activity”.
